Measurements from patent US20130130992A1, “DIPEPTIDE DERIVATIVE FOR THE TREATMENT OF CANCER” (ONCOTEST GMBH, priority 2010, published 2013).
Several values for one entry are separate records, joined by “and”; a condition that tells them apart may be missing. Equal entries are not always repeated. Where two headings read alike, the source gives them in different places.

What was measured:
PRXF DU 145 = assay: Monolayer propidium iodide assay, PRXF DU 145; assay type: cell-based; settings: Homo sapiens, 96 h; PRXF DU 145, Prostate; 4 days of treatment
Description: (§1) Oncotest GmbH, Germany's proprietary tumor cell line panel comprises 40 cell lines. These cell lines were derived from 15 different tumor histotypes, each represented by 1 to 6 different cell lines. Cell lines were established from cancer of the bladder (3), colon (4), head and neck (1), lung (6), breast (3), pancreas (3), prostate (4), ovary (2), kidney (3), liver (1), stomach (1) and the uteri body (1), as well as from melanoma (3), sarcoma (2) and pleuramesothelioma (3). Out of these 40 cell lines, 24 cell lines were established at Oncotest, from patient-derived tumor xenografts. […]
(§2) Stock solutions of the compound of formula (1) (3.3 mM in DMSO) were prepared and stored in small aliquots (200 μl) at −20° C. […] Each concentration was evaluated in triplicate. […]
(§3) Cells were plated in 96-well flat-bottom microtiter plates at a cell density of 4,000 to 20,000 cells/well. […] After an incubation period of 1-2 hours at room temperature, fluorescence (FU) was measured using the Cytofluor 4000 microplate reader (excitation λ=530 nm, emission λ=620 nm) to quantify the amount of attached viable cells. […] Based on the T/C values, relative IC50 values were determined by non-linear regression (log [conc. of inhibitor] versus response (% T/C)) using the GraphPad Prism® analysis software (Prism 5 for Windows, version 5.01, GraphPad Software Inc., CA). […]

PRXF LNCAP = assay: Monolayer propidium iodide assay, PRXF LNCAP; assay type: cell-based; settings: Homo sapiens, 96 h, Prostate, 4 days of treatment
Description: as §1, §2, §3

PRXF PC3M = assay: Monolayer propidium iodide assay, PRXF PC3M; assay type: cell-based; settings: Homo sapiens, PC-3M, 96 h, Prostate, 4 days of treatment
Description: as §1, §2, §3

PXF 1118L = assay: Monolayer propidium iodide assay, PXF 1118L; assay type: cell-based; settings: Homo sapiens, 96 h, Pleuramesothelioma, 4 days of treatment
Description: as §1, §2, §3

PXF 1752L = assay: Monolayer propidium iodide assay, PXF 1752L; assay type: cell-based; settings: Homo sapiens, 96 h, Pleuramesothelioma, 4 days of treatment
Description: as §1, §2, §3

PXF 698L = assay: Monolayer propidium iodide assay, PXF 698L; assay type: cell-based; settings: Homo sapiens, 96 h, Pleuramesothelioma, 4 days of treatment
Description: as §1, §2, §3

RXF 1781L = assay: Monolayer propidium iodide assay, RXF 1781L; assay type: cell-based; settings: Homo sapiens, 96 h, Renal, 4 days of treatment
Description: as §1, §2, §3

RXF 393NL = assay: Monolayer propidium iodide assay, RXF 393NL; assay type: cell-based; settings: Homo sapiens, 96 h, Renal, 4 days of treatment
Description: as §1, §2, §3

RXF 486L = assay: Monolayer propidium iodide assay, RXF 486L; assay type: cell-based; settings: Homo sapiens, 96 h, Renal, 4 days of treatment
Description: as §1, §2, §3

SXF SAOS2 = assay: Monolayer propidium iodide assay, SXF SAOS2; assay type: cell-based; settings: Homo sapiens, SAOS-2, 96 h; SXF SAOS2, Sarcoma; 4 days of treatment
Description: as §1, §2, §3

SXF TE671 = assay: Monolayer propidium iodide assay, SXF TE671; assay type: cell-based; settings: Homo sapiens, TE-671, 96 h; SXF TE671, Sarcoma; 4 days of treatment
Description: as §1, §2, §3

UXF 1138L = assay: Monolayer propidium iodide assay, UXF 1138L; assay type: cell-based; settings: Homo sapiens, 96 h, Uterus, 4 days of treatment
Description: as §1, §2, §3

[1] = system: panel of 40 human tumor cell lines; assay: Monolayer propidium iodide assay, whole panel; assay type: cell-based; settings: for IC50: Homo sapiens
Description: Oncotest GmbH, Germany's proprietary tumor cell line panel comprises 40 cell lines. These cell lines were derived from 15 different tumor histotypes, each represented by 1 to 6 different cell lines. Cell lines were established from cancer of the bladder (3), colon (4), head and neck (1), lung (6), breast (3), pancreas (3), prostate (4), ovary (2), kidney (3), liver (1), stomach (1) and the uteri body (1), as well as from melanoma (3), sarcoma (2) and pleuramesothelioma (3). Out of these 40 cell lines, 24 cell lines were established at Oncotest, from patient-derived tumor xenografts. The other 16 cell lines were either provided by the NCl (Bethesda; MD, USA) or were purchased from ATCC (Rockville, Md., USA) or DSMZ (Braunschweig, Germany).
Cell lines were routinely passaged once or twice weekly and maintained in culture for upto 20 passages. All the cells were grown at 37° C. in a humidified atmosphere with 5% (Carbon Dioxide) CO2 in RPMI 1640 medium supplemented with 10% (v/v) fetal calf serum (FCS) and 0.1 mg/ml gentamicin (medium and all other components from PAA, Colbe, Germany). Authenticity of all cell lines was proven by STR (short tandem repeat) analysis, a PCR based DNA-fingerprinting methodology.
Stock solutions of the compound of formula (1) (3.3 mM in DMSO) were prepared and stored in small aliquots (200 μl) at −20° C. An aliquot of the stock solution was thawed on the day of use and stored at room temperature prior to and during dosing. The subsequent dilutions were done with complete RPMI 1640 cell culture medium as follows: the stock solution was diluted 1:22 followed by serial dilutions finally resulting in a (compared to the test concentration) 15-fold higher concentration. For the final dilution step (1:15), 10 μl/well of the solution was directly added to 140 μl/well culture medium. Compound of formula (1) [also referred as test compound] was tested at 0.00032, 0.001, 0.0032, 0.01, 0.032, 0.1, 0.32, 1, 3.2 and 10 μM. Each concentration was evaluated in triplicate.
A modified Propidium Iodide assay was used to assess the effect of the compound of formula (1) on the growth of the human tumor cell lines and was designed as in reference, Anti-cancer Drugs, 6, 522-532, (1995), the disclosure of which is incorporated by reference for the teaching of the assay.
Cells were plated in 96-well flat-bottom microtiter plates at a cell density of 4,000 to 20,000 cells/well. After a 24 hr recovery period to allow the cells to resume exponential growth, the compound of formula (1) was applied at 10 concentrations in half-log increments in triplicates and treatment continued for 4 days. After 4 days of treatment, cells were next washed with 200 μl phosphate buffer solution (PBS) to remove dead cells, then 200 μl of a solution containing 7 μg/ml propidium iodide (PI) and 0.1% (v/v) Triton X-100 were added to the wells. After an incubation period of 1-2 hours at room temperature, fluorescence (FU) was measured using the Cytofluor 4000 microplate reader (excitation λ=530 nm, emission λ=620 nm) to quantify the amount of attached viable cells. Pharmacological effects on cell proliferation and survival were expressed as Test/Control×100 (% T/C) values, with T and C representing the fluorescence read-outs for wells with and without test compound, respectively, i.e. T/C represents the ratio of viable cell numbers following incubation of cell line with and without test compound. Based on the T/C values, relative IC50 values were determined by non-linear regression (log [conc. of inhibitor] versus response (% T/C)) using the GraphPad Prism® analysis software (Prism 5 for Windows, version 5.01, GraphPad Software Inc., CA). For calculation of mean IC50 values over the 40 cell lines as tested, the geometric mean was selected. If Graph Pad Prism could not calculate reliable IC50 values by non-linear regression, the IC50 value was estimated by visual inspection of the concentration-effect curve.

[2] = Solubility (physical properties); assay type: physicochemical

IC50 (PRXF DU 145): 52 nM
IC50 (PRXF LNCAP): 122 nM
IC50 (PRXF PC3M): 47 nM
IC50 (PXF 1118L): 54 nM
IC50 (PXF 1752L): 187 nM
IC50 (PXF 698L): 178 nM
IC50 (RXF 1781L): 260 nM
IC50 (RXF 393NL): 323 nM
IC50 (RXF 486L): 159 nM
IC50 (SXF SAOS2): 185 nM
IC50 (SXF TE671): 82 nM
IC50 (UXF 1138L): 126 nM
Tumor selectivity: number of cell lines with individual IC50 < mean IC50 ([1]; Bladder): 2 out of 3 and 2/3
Tumor selectivity: number of cell lines with individual IC50 < mean IC50 ([1]; Breast): 1/3
Tumor selectivity: number of cell lines with individual IC50 < mean IC50 ([1]; Colon): 3/4
IC50 ([1]; 3/3 pancreatic tumor cell lines, read-out: individual IC50, pancreatic tumor cell lines): < 60 nM
IC50 ([1]; 5/6 cell lines derived from lung carcinoma, read-out: individual IC50, lung carcinoma cell lines): < 50 nM
IC50 ([1]; geometric mean over the 40 cell lines, read-out: Mean IC50): 89 nM
IC50 ([1]; upper bound for every cell line of the panel, read-out: IC50 achieved for all the 40 cell lines): < 330 nM
Tumor selectivity: number of cell lines with individual IC50 < mean IC50 ([1]; Kidney): 0/3
Tumor selectivity: number of cell lines with individual IC50 < mean IC50 ([1]; Lung): 5/6
Tumor selectivity: number of cell lines with individual IC50 < mean IC50 ([1]; Melanoma): 0/3
Tumor selectivity: number of cell lines with individual IC50 < mean IC50 ([1]; Pancreas): 3/3
Tumor selectivity: number of cell lines with individual IC50 < mean IC50 ([1]; Pleurameso): 1/3
Tumor selectivity: number of cell lines with individual IC50 < mean IC50 ([1]; Prostate): 2/4
Solubility ([2]; in water): insoluble in water
Structure (SMILES): CCCC1CCCCCC(O)CC(=O)NC2CSSCC(NC2=O)C(=O)O1 (centres unmarked) [compound of formula (1)]
antitumor activity in all cell lines as tested ([1]; 0.00032 to 10 μM, 40 cell lines, 15 histotypes): concentration-dependent antitumor activity
Solubility ([2]; in chloroform and methanol): sparingly soluble in chloroform and methanol; and
Solubility ([2]; in pyridine, acetic acid, dimethyl sulfoxide): Soluble in pyridine, acetic acid, dimethyl sulfoxide;
